These results are taken from ChEMBL document CHEMBL1275562, “Incidence and characteristics of vancomycin nonsusceptible strains of methicillin-resistant Staphylococcus aureus at Hershey Medical Center” (2008).

≈ marks a conversion by molar mass, not a printed value.

Assay type in all cases: functional
The subject of test [1] is Staphylococcus aureus. Description: Antimicrobial activity against vancomycin-intermediate Staphylococcus aureus SA770 after 48 hrs by macro Etest method. To be noted: SA770, 48 h.
In test [2] the test system is Staphylococcus aureus. In words: Antimicrobial activity against vancomycin-intermediate Staphylococcus aureus SA1287 after 48 hrs by macro Etest method. The conditions noted are these: SA1287, 48 h.
For test [3], the system named is Staphylococcus aureus. Description: Antimicrobial activity against vancomycin-intermediate Staphylococcus aureus SA1984 after 48 hrs by macro Etest method. The conditions noted are these: SA1984, 48 h.
The subject of test [4] is Staphylococcus aureus. In words: Antimicrobial activity against heterogeneous vancomycin-intermediate Staphylococcus aureus SA618 after 48 hrs by macro Etest method. To be noted: SA618, 48 h.
Test [5] deals with Staphylococcus aureus. In words: Antimicrobial activity against heterogeneous vancomycin-intermediate Staphylococcus aureus SA873 after 48 hrs by macro Etest method. To be noted: SA873, 48 h.
The test system of test [6] is Staphylococcus aureus. In words: Antimicrobial activity against vancomycin-susceptible Staphylococcus aureus SA662 after 48 hrs by macro Etest method. To be noted: SA662, 48 h.
Test [7] deals with Staphylococcus aureus. Description: Antimicrobial activity against vancomycin-susceptible Staphylococcus aureus SA2089 after 48 hrs by macro Etest method. The conditions noted are these: SA2089, 48 h.

Consider `CC(=O)N[C@@H]1[C@H](Oc2c3cc4cc2Oc2ccc(cc2Cl)[C@@H](O[C@@H]2O[C@@H](CO)[C@@H](O)[C@H](O)[C@@H]2NC(C)=O)[C@@H]2NC(=O)[C@H](NC(=O)[C@@H]4NC(=O)[C@H]4NC(=O)[C@@H](Cc5ccc(c(Cl)c5)O3)NC(=O)[C@H](N)c3ccc(O)c(c3)Oc3cc(O)cc4c3)c3ccc(O)c(c3)-c3c(O[C@H]4O[C@H](CO)[C@@H](O)[C@@H](O)[C@@H]4O)cc(O)cc3[C@@H](C(=O)O)NC2=O)O[C@@H](CO)[C@@H](O)[C@@H]1O`, for which the MIC with Staphylococcus aureus [1] was 24 µg/mL (≈ 13.6 µM); against Staphylococcus aureus [2], 8 µg/mL (≈ 4.53 µM); against Staphylococcus aureus [3], 8 µg/mL (≈ 4.53 µM); against Staphylococcus aureus [4], 24 µg/mL (≈ 13.6 µM); against Staphylococcus aureus [5], 12 µg/mL (≈ 6.79 µM); against Staphylococcus aureus [6], 12 µg/mL (≈ 6.79 µM). The compound further registered an MIC against Staphylococcus aureus [7] of 12 µg/mL (≈ 6.79 µM).
Consider `CN[C@H](CC(C)C)C(=O)N[C@H]1C(=O)N[C@@H](CC(N)=O)C(=O)N[C@H]2C(=O)N[C@H]3C(=O)N[C@H](C(=O)N[C@H](C(=O)O)c4cc(O)cc(O)c4-c4cc3ccc4O)[C@H](O)c3ccc(c(Cl)c3)Oc3cc2cc(c3O[C@@H]2O[C@H](CO)[C@@H](O)[C@H](O)[C@H]2O[C@H]2C[C@](C)(N)[C@H](O)[C@H](C)O2)Oc2ccc(cc2Cl)[C@H]1O` [VANCOMYCIN], for which the MIC with Staphylococcus aureus [1] was determined as 6 µg/mL (≈ 4.14 µM); with Staphylococcus aureus [3] it was 6 µg/mL (≈ 4.14 µM); against Staphylococcus aureus [4], 3 µg/mL (≈ 2.07 µM); against Staphylococcus aureus [5], 3 µg/mL (≈ 2.07 µM); in the test with Staphylococcus aureus [7], 3 µg/mL (≈ 2.07 µM).
